From patent publication US11718604B2, “4-amino-6-(1,3-benzodioxole)picolinates and their use as herbicides” (Dow AgroSciences LLC, priority 2018, dated 2023)

Columns and labels:
Assay type in all cases: in vivo
[1] = tested on: ABUTH: velvetleaf (Abutilon theophrasti); experiment: Post-emergent herbicidal test, velvetleaf; conditions: post-emergence, 336 h, 14 days after application, read-out: Visual Growth Reduction (%) 14 Days After Application ABUTH; for pest or weed control at 17.5 g/ha: 17.5 g ai/ha; for pest or weed control at 35 g/ha: 35 g ai/ha; for pest or weed control at 70 g/ha: 70 g ai/ha; for pest or weed control at 140 g/ha: 140 g ai/ha
In short: (§1)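 Visual injury rating, 0 (none) to 100% (complete kill), made 14 d after treatment relative to untreated plants. Foliar track-sprayer application at 187 L/ha to plants at the 1st-2nd true leaf stage; rates were twofold serial dilutions from the highest rate down to 1/16×.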

[2] = tested on: BRSNN: oilseed rape, canola (Brassica napus); experiment: Post-emergent herbicidal test, oilseed rape; conditions: post-emergence, 336 h, 14 days after application, read-out: Visual Growth Reduction (%) 14 Days After Application BRSNN; for pest or weed control at 17.5 g/ha: 17.5 g ai/ha; for pest or weed control at 35 g/ha: 35 g ai/ha; for pest or weed control at 70 g/ha: 70 g ai/ha; for pest or weed control at 140 g/ha: 140 g ai/ha
In short: as §1

[3] = tested on: CIRAR: Canada thistle (Cirsium arvense); experiment: Post-emergent herbicidal test, Canada thistle; conditions: post-emergence, 336 h, 14 days after application, read-out: Visual Growth Reduction (%) 14 Days After Application CIRAR; for pest or weed control at 17.5 g/ha: 17.5 g ai/ha; for pest or weed control at 35 g/ha: 35 g ai/ha; for pest or weed control at 70 g/ha: 70 g ai/ha; for pest or weed control at 140 g/ha: 140 g ai/ha
In short: as §1

[4] = tested on: EPHHL: wild poinsettia (Euphorbia heterophylla); experiment: Post-emergent herbicidal test, wild poinsettia; conditions: post-emergence, 336 h, 14 days after application, read-out: Visual Growth Reduction (%) 14 Days After Application EPHHL; for pest or weed control at 17.5 g/ha: 17.5 g ai/ha; for pest or weed control at 35 g/ha: 35 g ai/ha; for pest or weed control at 70 g/ha: 70 g ai/ha; for pest or weed control at 140 g/ha: 140 g ai/ha
In short: as §1

[5] = tested on: IPOHE: ivyleaf morningglory (Ipomoea hederacea); experiment: Post-emergent herbicidal test, ivyleaf morningglory; conditions: post-emergence, 336 h, 14 days after application, read-out: Visual Growth Reduction (%) 14 Days After Application IPOHE; for pest or weed control at 17.5 g/ha: 17.5 g ai/ha; for pest or weed control at 35 g/ha: 35 g ai/ha; for pest or weed control at 70 g/ha: 70 g ai/ha; for pest or weed control at 140 g/ha: 140 g ai/ha
In short: as §1

[6] = tested on: VIOTR: wild violet (Viola tricolor); experiment: Post-emergent herbicidal test, wild violet; conditions: post-emergence, 336 h, 14 days after application, read-out: Visual Growth Reduction (%) 14 Days After Application VIOTR; for pest or weed control at 17.5 g/ha: 17.5 g ai/ha; for pest or weed control at 35 g/ha: 35 g ai/ha; for pest or weed control at 70 g/ha: 70 g ai/ha; for pest or weed control at 140 g/ha: 140 g ai/ha
In short: as §1

[7] = tested on: CYPES: yellow nutsedge (Cyperus esculentus); experiment: Post-emergent herbicidal test, yellow nutsedge; conditions: post-emergence, 336 h, 14 days after application, read-out: Visual Growth Reduction (%) 14 Days After Application CYPES; for pest or weed control at 17.5 g/ha: 17.5 g ai/ha; for pest or weed control at 35 g/ha: 35 g ai/ha; for pest or weed control at 70 g/ha: 70 g ai/ha; for pest or weed control at 140 g/ha: 140 g ai/ha
In short: as §1

[8] = tested on: DIGSA: large crabgrass (Digitaria sanguinalis); experiment: Post-emergent herbicidal test, large crabgrass; conditions: post-emergence, 336 h, 14 days after application, read-out: Visual Growth Reduction (%) 14 Days After Application DIGSA; for pest or weed control at 17.5 g/ha: 17.5 g ai/ha; for pest or weed control at 35 g/ha: 35 g ai/ha; for pest or weed control at 70 g/ha: 70 g ai/ha; for pest or weed control at 140 g/ha: 140 g ai/ha
In short: as §1

[9] = tested on: ECHCG: barnyardgrass (Echinochloa crus-galli); experiment: Post-emergent herbicidal test, barnyardgrass; conditions: post-emergence, 336 h, 14 days after application, read-out: Visual Growth Reduction (%) 14 Days After Application ECHCG; for pest or weed control at 17.5 g/ha: 17.5 g ai/ha; for pest or weed control at 35 g/ha: 35 g ai/ha; for pest or weed control at 70 g/ha: 70 g ai/ha; for pest or weed control at 140 g/ha: 140 g ai/ha
In short: as §1

[10] = tested on: SETFA: giant foxtail (Setaria faberi); experiment: Post-emergent herbicidal test, giant foxtail; conditions: post-emergence, 336 h, 14 days after application, read-out: Visual Growth Reduction (%) 14 Days After Application SETFA; for pest or weed control at 17.5 g/ha: 17.5 g ai/ha; for pest or weed control at 35 g/ha: 35 g ai/ha; for pest or weed control at 70 g/ha: 70 g ai/ha; for pest or weed control at 140 g/ha: 140 g ai/ha
In short: as §1

[11] = tested on: SORVU: shattercane (Sorghum bicolor); experiment: Post-emergent herbicidal test, shattercane; conditions: post-emergence, 336 h, 14 days after application, read-out: Visual Growth Reduction (%) 14 Days After Application SORVU; for pest or weed control at 17.5 g/ha: 17.5 g ai/ha; for pest or weed control at 35 g/ha: 35 g ai/ha; for pest or weed control at 70 g/ha: 70 g ai/ha; for pest or weed control at 140 g/ha: 140 g ai/ha
In short: as §1

Structure (SMILES): Nc1c(F)c(-c2ccc(Br)c3c2OC(F)(F)O3)nc(C(=O)O)c1Cl [Compound 11]
- pest or weed control at 17.5 g/ha [1]: 50%
- pest or weed control at 35 g/ha [1]: 70%
- pest or weed control at 70 g/ha [1]: 80%
- pest or weed control at 140 g/ha [1]: 85%
- pest or weed control at 17.5 g/ha [2]: 90%
- pest or weed control at 35 g/ha [2]: 90%
- pest or weed control at 70 g/ha [2]: 90%
- pest or weed control at 140 g/ha [2]: 90%
- pest or weed control at 17.5 g/ha [3]: 80%
- pest or weed control at 35 g/ha [3]: 85%
- pest or weed control at 70 g/ha [3]: 90%
- pest or weed control at 140 g/ha [3]: 90%
- pest or weed control at 17.5 g/ha [4]: 0%
- pest or weed control at 35 g/ha [4]: 0%
- pest or weed control at 70 g/ha [4]: 0%
- pest or weed control at 140 g/ha [4]: 0%
- pest or weed control at 17.5 g/ha [5]: 0%
- pest or weed control at 35 g/ha [5]: 0%
- pest or weed control at 70 g/ha [5]: 0%
- pest or weed control at 140 g/ha [5]: 0%
- pest or weed control at 17.5 g/ha [6]: 0%
- pest or weed control at 35 g/ha [6]: 0%
- pest or weed control at 70 g/ha [6]: 0%
- pest or weed control at 140 g/ha [6]: 20%
- pest or weed control at 17.5 g/ha [7]: 0%
- pest or weed control at 35 g/ha [7]: 0%
- pest or weed control at 70 g/ha [7]: 0%
- pest or weed control at 140 g/ha [7]: 0%
- pest or weed control at 17.5 g/ha [8]: 0%
- pest or weed control at 35 g/ha [8]: 0%
- pest or weed control at 70 g/ha [8]: 0%
- pest or weed control at 140 g/ha [8]: 0%
- pest or weed control at 17.5 g/ha [9]: 0%
- pest or weed control at 35 g/ha [9]: 0%
- pest or weed control at 70 g/ha [9]: 0%
- pest or weed control at 140 g/ha [9]: 0%
- pest or weed control at 17.5 g/ha [10]: 0%
- pest or weed control at 35 g/ha [10]: 0%
- pest or weed control at 70 g/ha [10]: 0%
- pest or weed control at 140 g/ha [10]: 0%
- pest or weed control at 17.5 g/ha [11]: 0%
- pest or weed control at 35 g/ha [11]: 0%
- pest or weed control at 70 g/ha [11]: 0%
- pest or weed control at 140 g/ha [11]: 10%

Structure (SMILES): Nc1c(F)c(-c2ccc(I)c3c2OC(F)(F)O3)nc(C(=O)O)c1Cl [Compound 12]
- pest or weed control at 17.5 g/ha [1]: 0%
- pest or weed control at 35 g/ha [1]: 0%
- pest or weed control at 70 g/ha [1]: 70%
- pest or weed control at 140 g/ha [1]: 80%
- pest or weed control at 17.5 g/ha [2]: 70%
- pest or weed control at 35 g/ha [2]: 80%
- pest or weed control at 70 g/ha [2]: 90%
- pest or weed control at 140 g/ha [2]: 100%
- pest or weed control at 17.5 g/ha [3]: 65%
- pest or weed control at 35 g/ha [3]: 80%
- pest or weed control at 70 g/ha [3]: 85%
- pest or weed control at 140 g/ha [3]: 85%
- pest or weed control at 17.5 g/ha [4]: 0%
- pest or weed control at 35 g/ha [4]: 0%
- pest or weed control at 70 g/ha [4]: 0%
- pest or weed control at 140 g/ha [4]: 0%
- pest or weed control at 17.5 g/ha [5]: 0%
- pest or weed control at 35 g/ha [5]: 0%
- pest or weed control at 70 g/ha [5]: 0%
- pest or weed control at 140 g/ha [5]: 0%
- pest or weed control at 17.5 g/ha [6]: 0%
- pest or weed control at 35 g/ha [6]: 0%
- pest or weed control at 70 g/ha [6]: 0%
- pest or weed control at 140 g/ha [6]: 0%
- pest or weed control at 17.5 g/ha [7]: 0%
- pest or weed control at 35 g/ha [7]: 0%
- pest or weed control at 70 g/ha [7]: 0%
- pest or weed control at 140 g/ha [7]: 0%
- pest or weed control at 17.5 g/ha [8]: 0%
- pest or weed control at 35 g/ha [8]: 0%
- pest or weed control at 70 g/ha [8]: 0%
- pest or weed control at 140 g/ha [8]: 0%
- pest or weed control at 17.5 g/ha [9]: 0%
- pest or weed control at 35 g/ha [9]: 0%
- pest or weed control at 70 g/ha [9]: 0%
- pest or weed control at 140 g/ha [9]: 0%
- pest or weed control at 17.5 g/ha [10]: 0%
- pest or weed control at 35 g/ha [10]: 0%
- pest or weed control at 70 g/ha [10]: 0%
- pest or weed control at 140 g/ha [10]: 0%
- pest or weed control at 17.5 g/ha [11]: 0%
- pest or weed control at 35 g/ha [11]: 0%
- pest or weed control at 70 g/ha [11]: 0%
- pest or weed control at 140 g/ha [11]: 0%
